These results are taken from patent publication US20240124410A1, “SMALL MOLECULES AND THEIR USE AS MALT1 INHIBITORS” (University of Pittsburgh - Of the Commonwealth System of …, priority 2021, published 2024).

This assay deals with T1, BCL10-MALT1 interaction (Homo sapiens, UniProt Q9UDY8).
T1 sequence (Q9UDY8 1-824): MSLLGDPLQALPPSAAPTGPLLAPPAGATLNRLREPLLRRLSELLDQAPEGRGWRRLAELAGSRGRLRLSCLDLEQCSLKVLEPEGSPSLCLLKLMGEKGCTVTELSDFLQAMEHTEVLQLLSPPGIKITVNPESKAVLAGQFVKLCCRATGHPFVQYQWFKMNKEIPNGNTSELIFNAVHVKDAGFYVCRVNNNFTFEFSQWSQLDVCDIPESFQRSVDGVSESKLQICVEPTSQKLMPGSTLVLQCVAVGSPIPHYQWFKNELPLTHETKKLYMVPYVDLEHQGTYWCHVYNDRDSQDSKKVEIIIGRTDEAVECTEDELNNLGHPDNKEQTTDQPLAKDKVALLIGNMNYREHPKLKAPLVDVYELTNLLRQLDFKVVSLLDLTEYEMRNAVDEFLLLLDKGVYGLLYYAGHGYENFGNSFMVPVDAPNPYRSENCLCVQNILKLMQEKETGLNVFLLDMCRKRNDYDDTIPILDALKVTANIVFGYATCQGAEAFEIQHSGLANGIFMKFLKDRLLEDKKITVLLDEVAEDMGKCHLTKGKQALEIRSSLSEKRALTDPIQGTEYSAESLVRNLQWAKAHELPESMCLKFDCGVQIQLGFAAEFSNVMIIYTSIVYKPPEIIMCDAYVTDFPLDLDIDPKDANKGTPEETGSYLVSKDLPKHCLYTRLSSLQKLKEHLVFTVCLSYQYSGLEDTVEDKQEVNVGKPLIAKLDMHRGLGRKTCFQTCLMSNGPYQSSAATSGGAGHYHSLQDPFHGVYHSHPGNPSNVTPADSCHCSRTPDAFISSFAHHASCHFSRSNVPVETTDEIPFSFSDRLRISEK
Description: ELISA-based protein-protein interaction assay, BCL10-MALT1 (FIG. 2F, 2H); His-tagged recombinant human full-length Bcl10 on plate, GST-tagged recombinant human full-length MALT1. More on the design: GST-tagged recombinant human full-length MALT1 protein; GST; purchased Novus Biologicals H00010892-P01. Particulars: compound preincubated with 100 ng GST-MALT1 for 1 hour, 100 ng His-Bcl10 on plate, one-site binding fit, read-out: IC50 for inhibition of BCL10-MALT1 binding (ELISA). The source says:
FIG. 2. In silico screening identifies small molecules targeting the predicted BCL10-binding groove within MALT1 (Ig1-2). (A) We performed a structure-guided in silico screen of 3 million compounds, using the LibDock program from Discovery Studio 3.5, in order to identify candidate molecules that could potentially fit within the identified groove in the MALT1 Ig1-2 domain. Lipinski's rule of five filters (LipinskiRo5) were applied to enrich for compounds with drug-like properties. Potential compound hits were then screened for their ability to disrupt the MALT1-BCL10 interaction using SPR analysis. 9 candidate compounds were then subjected to a second, ELISA-based MALT1-BCL10 interaction assay, identifying 2 compounds that could disrupt the interaction in both SPR and ELISA assays. M1i-124 and M1i-1255 are the two compounds identified to disrupt the BCL10-MALT1 interaction. M1i-124 became our lead compound and M1i-1255 is partially characterized in FIG. 8. (B) Structure of M1i-124. (C) Model of M1i-124 docked onto the MALT1 Ig1-2 domain groove (PDB 3K0W). […] (E) SPR analysis was performed to determine the IC50 for M1i-124 disruption of the BCL10-MALT1 interaction in a dose-response assay. (F) ELISA analysis confirmed that M1i-124 disrupts the interaction between BCL10 and MALT1 in dose dependent fashion (left). […] Circles highlight sites that differ from parent compound, M1i-124. […]

Take `COc1ccc(CNS(=O)(=O)c2ccc(Cc3ccc(S(=O)(=O)NCc4ccc(OC)cc4)cc3)cc2)cc1` [M1i-124d1]: the IC50 was 8.45 µM.
